Experimental data published in patent EP2985032B1, “GLYX FOR USE IN THE TREATMENT OF ALZHEIMER'S DISEASE, PARKINSON'S DISEASE OR HUNTINGTON'S DISEASE” (Northwestern University, priority 2009, dated 2019).
No end group written: not given here.

What was measured:
[1] = system: rats; assay: Porsolt test (Forced Swim Test) of depression; type: in vivo; set-up: Mean Immobility Time: unit not given beside the values; details: for maximum reduction in floating compared to saline vehicle / Mean Immobility Time: Example 2; for maximum reduction in floating compared to saline vehicle: P < .01
Description: For the evaluation of the antidepressant actions of GLYX-13, the effect of GLYX-13 in the Porsolt test of depression was examined in rats. Porsolt testing is the most commonly used test for assessment of depression in animal model. Porsolt testing, also known as Forced Swim Test, is based on a behavioral trait that is sensitive to changes in affective state. During this test, the animal is placed in a tank (18 cm diameter x 45 cm height) filled to 30 cm with 22-23°C water. After placing the animal in the tank, the amount of time for which the rat is immobile when it stops struggling is measured. Porsolt test is based on the fact that antidepressants increase the latency to immobility and decrease the time for which the rat is immobile. […] The interpretation of the Porsolt test is that the antidepressants reinstate active coping mechanisms and decrease the passive immobility evoked by stress.
(§1) In order to evaluate the effectiveness of GLYX-13 as antidepressant, three month old FBNF1 rats were separated into two groups of 9 animals. The first group of rats was intravenously injected with 10 mg/kg GLYX-13 and the second group of animals was intravenously injected with PBS vehicle (1 ml/kg) in a blind manner via chronic subdural femoral vein access ports. Both groups of animals were injected 10 to 15 minutes before the start of testing.
For Porsolt testing, animals were given a 15 minute pre-test habituation in the tank to induce learned helplessness on day one. Following this, on the subsequent day, the animals were injected with GLYX-13 or vehicle 10-15 minutes before being placed into the tank for a 5 minute test session. After placing the animals in the tank, the amount of time for which each animal is immobile when it stops struggling (Mean Immobility Time) was measured. Decrease in Mean Immobility Time is a measure of the effectiveness of the antidepressant.
A second experiment was performed in the same manner as Example 1, except that 2-3 month Sprague-Dawley rats were used, and treated with either intravenous (1, 3, 10, 32 mg / kg), subcutaneous (1,3, 10, 32, 56, 100 mg / kg) injections of GLYX-13 or saline vehicle (1 mg / ml) 15 (i.v.) or 20 (s.c.) min before the start of the final 5 min test session. Ketamine (10 mg / kg i.p.) was given 60 min before the start of testing (Garcia et al., (2008) Prog Neuropsychopharmacol Biol Psychiatry, 32, 140-144). Subcutaneous administration of 10 mg/kg ketamine followed by testing after 20 min post dosing produced severe dissociative side effects, as shown in Figure 3.
To determine whether GLYX-13 acts in an area of the brain that is clinically relevant for depression, GLYX-13 was administered to either the medial prefrontal cortex (MPFC), which is associated with mood and depression, or to the motor cortex (Fig. 4). Mean time spent immobile in the Porsolt test was determined for groups of 10 three-month old male Fisher Brown Norway F1 (FBNF1) rats pretreated with a single injection of GLYX-13 (1, 10 ug / side) or a single saline vehicle injection (0.5 ul / 1 min) bilaterally into the medial prefrontal cortex or motor cortex (dorsal control) in animals with surgically implanted chronic indwelling cannulae aimed at the MPFC. Microinjections were made 1 week after surgery, and Porsolt testing was conducted 20 min post injection. Animals received a single 15 min training swim session one day before dosing.
To determine whether the antidepressant effect of GLYX-13 was specific to the sequence of the GLXY-13 peptide, mean time (sec) spent floating in the Porsolt test was determined in groups of 12 three-month old Sprague Dawley rats administered with GLYX-13 (TPPT-NH2; 3 mg / kg, i.v. tail vein), a scrambled peptide ([…]; 3 mg / kg i.v. tail vein), or 0.9% saline vehicle (1 ml / kg, i.v. tail vein). Administration occurred 60 min before the 5 min. testing session. Animals received a 15 min. training swim session one day before dosing. […]

[2] = system: rats; assay: Open field test of anxiety; type: in vivo; details: for increase in the amount of time spent in the center of the field compared to vehicle: Example 6, P < .05
Description: The purpose of this study was to evaluate action of GLYX-13 on anxiety. In order to gauge the effect of GLYX-13 in rats, the open field test of anxiety was conducted. The open field test is a widely used neophobic test of anxiety (see, Treit D, Fundytus M. Thigmotaxis as a test for anxiolytic activity in rats. Pharmachol Biochem Behav 1989;31:959-62.).
The open field area used for the open field test generally consists of an empty and bright square (or rectangular) arena, surrounded by walls. For the current study, an open field of 45 cm X 35 cm X 20 cm high was used. The rat was placed in the center of the arena and its behavior recorded over a predefined period of time (usually between 2 to 15 min). The open field test is based on the natural tendency of the rats to avoid open spaces. The open field test is based on the conflict between the innate anxiety that rats have of the central area of the open space versus their desire to explore new environments. When rats are in an anxious state, they have a natural tendency to stay near the walls. This natural tendency of the rats to stay close to the walls is called thigmotaxis. In this context, anxiety-related behavior is measured by the degree to which the rat avoids the center of the open field test. Determining the propensity of the rat to avoid the open field can be determined by measuring the number of center crosses made by the rats over a predefined interval of time, or by determining the amount of time the rat stays in the center of the field.
as §1, with “an anxiolytic, two groups of” for “antidepressant,”, “used. The first group was composed” for “separated into two groups”, “13 rats and the second group was composed of 11 rats.” for “9 animals.”, “rats” for “animals”, “testing. After GLYX-13 injections, both groups of rats were tested in the open field.” for “testing.”
For the open field test, rats were habituated to the open field for 2 minutes each day for three consecutive days before the final 2 minute test session in which GLYX-13 or vehicle was administered. Open field activity was recorded by a video camera mounted above the open field area, and number of center crosses in the open field was measured.
A second experiment was performed in the same manner as Example 3, except that groups of 8-10 two- to three-month old male Sprague-Dawley rats pretreated with either intravenous (1, 3, 10, 32 mg / kg), subcutaneous (1, 3, 10, 32, 56, 100 mg / kg) injections of GLYX-13, ketamine (10 mg/kg i.p.) or saline vehicle (1 mg / ml) 15 min (i.v.), 20 (s.c.) or 60 (i.p.) min before the start of the 5 min test session. Each data point represents a group of 8-10 rats. The average (mean) amount of time animals spent in the center of the field was measured.
To evaluate whether the anti-depressive and anxiolytic effects of GLYX-13 would persist beyond a few hours, rats were tested in the Porsot test and the Open Field test, described above. […] Mean (± SEM) time (sec.) spent floating in the Porsolt test, time spent in the center compartment (sec.), and line crosses in the open field test were determined.

[3] = system: rats; assay: 50-kHz ultrasonic vocalizations model of positive affect (rough-and-tumble play); type: in vivo; details: Example 8; 10 mg/kg i.v., 10-15 min before test; FBNF1 rats; Mean ± SEM; P < .01
Source text: To evaluate the hedonic effect of GLYX-13 in this study, the 50-kHz ultrasonic vocalizations model of positive affect was examined in rats (see, Burgdorf, J., Panksepp, J., Brudzynski, S.M., Kroes, R.A. & Moskal, J.R. (2008). The effect of selective breeding for differential rates of 50-kHz ultrasonic vocalizations on emotional behavior in rats. Devel. Psychobiology, 51, 34-46.).
As a part of the study, two groups of three month old FBNF1 rats were used. The first group was composed of 13 rats and the second group was composed of 11 rats. The first group of rats was intravenously injected with 10mg/kg GLYX-13 and the second group of rats was intravenously injected with PBS vehicle (1 ml/kg) in a blind manner via chronic […] femoral vein access ports. Both groups of rats were injected 10 to 15 minutes before the start of test.
For hedonic ultrasonic vocalizations (USVs), animals received 2 minutes of heterospecific RTP habituation before the final 2 minutes test session.

[4] = system: rat hippocampal organotypic cultures; assay: LTP / LTD in hippocampal organotypic cultures; type: cell-based; details: in vitro
[5] = system: rats; assay: Porsolt test (Forced Swim Test) of depression; type: in vivo; set-up: Mean Immobility Time: unit not given beside the values
[6] = Example 7, 3 mg / kg i.v., Sprague-Dawley rats

With “L-threonyl-L-prolyl-L-prolyl-L-threonine amide (TPPT-NH2) [GLYX-13, NMDAR glycine-site partial agonist]” the “reduction in floating compared to PBS vehicle” value ([1]; Example 1, 10 mg/kg i.v., 10-15 min before test, three month old FBNF1 rats, Mean ± SEM, P < .0001) was 56.4 ± 4.6%, the “maximum reduction in floating compared to saline vehicle” value ([1]; administered intravenously, Sprague-Dawley rats, Mean ± SEM) was 50 ± 10% and the “maximum reduction in floating compared to saline vehicle” value ([1]; administered subcutaneously, Sprague-Dawley rats, Mean ± SEM) was 43 ± 7%. The “Mean Immobility Time” value ([1]; i.v., dose 3 (mg/kg), 15 min before test, Sprague-Dawley rats) was 66.14 ±27.53, the “Mean Immobility Time” value ([1]; i.v., dose 10 (mg/kg), 15 min before test, Sprague-Dawley rats) was 60.6 ±14.7 and the “Mean Immobility Time” value ([1]; i.v., dose 32 (mg/kg), 15 min before test, Sprague-Dawley rats) was 87.19±17.85. For the same substance, the “Mean Immobility Time” value ([1]; s.c., dose 1 (mg/kg), 20 min before test, Sprague-Dawley rats) was 135.5 ±22.0, the “Mean Immobility Time” value ([1]; s.c., dose 3 (mg/kg), 20 min before test, Sprague-Dawley rats) was 100.2 ±15.7 and the “Mean Immobility Time” value ([1]; s.c., dose 10 (mg/kg), 20 min before test, Sprague-Dawley rats) was 76.9 ±9.7. For the same substance, the “Mean time spent immobile” value ([1]; Example 3, MPFC injection, dose 1 (ug / side), FBNF1 rats, Mean ± SEM) was 53.46 ±10.65, the “Mean time spent immobile” value ([1]; Example 3, MPFC injection, dose 10 (ug / side), FBNF1 rats, Mean ± SEM) was 62.54±8.7 and the “reduction in floating compared to a saline control or to GLYX-13 injected into motor cortex” value ([1]; Example 3, injected bilaterally into the MPFC, FBNF1 rats, 20 min post injection, Mean ± SEM) was 50 ± 5%. For the same substance, the “Mean time spent immobile” value ([1]; Example 3, injected into motor cortex (dorsal control), FBNF1 rats, Mean ± SEM) was 113.7 ±13.1, the “reduction in mean floating time compared to saline injection or scrambled peptide” value ([1]; Example 4, 3 mg / kg i.v. tail vein, 60 min before test, Sprague Dawley rats, Mean ± SEM) was 70 ± 5% and the “reduction in mean floating time compared to saline control” value ([1]; Example 7, 3 mg / kg i.v., tested 96 hrs post dosing, Sprague-Dawley rats, mean ± SEM) was 82% ± 2. The “duration of antidepressant effects of a single administration” value [1, 6] was “up to 4 days”, the onset of action ([1]; single dose, rats) was “within minutes” and the “increase in center crosses compared to vehicle” value ([2]; Example 5, 10 mg/kg i.v., 10-15 min before test, FBNF1 rats, Mean ± SEM, P < .005) was 172.6 ± 34.3%. For the same substance, the “increase in the amount of time spent in the center of the field compared to vehicle” value ([2]; intravenous administration, 15 min before test, Sprague-Dawley rats, Mean ± SEM) was 42± 5%, the “increase in the amount of time spent in the center of the field compared to vehicle” value ([2]; subcutaneous administration, 20 min before test, Sprague-Dawley rats, Mean ± SEM) was 36 ± 5% and the “increase in mean center time compared to saline control” value ([2]; Example 7, 3 mg / kg i.v., tested 120 hrs post dosing, Sprague-Dawley rats, mean ± SEM) was 125% ± 5. The “duration of anxiolytic effects of a single administration” value [2, 6] was “up to 5 days”, the “increase in rates of play-induced positive affective 50-kHz USVs compared to vehicle” value [3] was 178.5 ± 48.3% and the “long-term depression (LTD)” value [4] was “reducing”. For the same substance, the “long-term potentiation (LTP)” value [4] was “markedly elevate”, the “Mean Immobility Time” value ([5]; Example 2, i.v., dose printed as 2, 15 min before test, Sprague-Dawley rats) was 84.9 ±15.0 and the “Mean time spent immobile” value ([5]; Example 3, MPFC injection, dose 0.1 (ug / side), FBNF1 rats, Mean ± SEM) was 108.77 ±12.34.
